{"source": "patent US6057153A", "about": "“Stabilized external guide sequences” (Yale University, priority 1997, dated 2000)", "key": {"[1]": {"test_system": "EGS/target RNA complex (SUB-156) with human RNase P", "experiment": "Measurements of kcat and A50", "format": "biochemical, hepatitis B virus (HBV)", "experimental": "Measurements of kcat, Km and A50 --Measurements of these kinetic parameters were carried out using conditions similar to those described above (e.g. identical cleavage buffers). For kcat measurements, aliquots were taken every 30-60 s for the first 5 min. The logarithm of the percentage of cleavage (Abs. Cleavage %) was plotted against time, and the data points were fitted using a linear least-squaresanalysis. The slope represents kcat values. For Km measurements,a fixed amount of RNase P (0.6 μl) was used, while substrate concentrations (i.e. EGS/target RNA complex) varied from 25 to 500 nM. Several EGS/target RNA ratios were assayed including 1:1, 5:1 and 10:1. Attempts were made to obtain Km and Vmax values from linear Lineweaver-Burk or Eadie-Hofstee plots. The scattered values could not be fit as a hyperbolic function. For A50 measurements, the ratio between EGS and target RNA was kept as 10:1. Various amounts of RNase P (0.3 to 3 μl) were used to conduct a 60-min cleavage reaction. Percentage of cleavage was plotted against [RNase P] in μl, and 50% cleavage values (A50) were determined using a non-linear, least-squares routine (Kaleidagraph, Synergy Software). The amount of RNase P required to reach A50 was then converted to enzyme unit. 1 unit of RNase P represents the amount of RNase P that catalyzes the conversion of 1 pmol of tRNA^Tyr precursor to cleavage products per minute per μl of the enzyme preparation. 1 unit of RNase P preparation used for this study equals 28.57 μl."}, "[2]": {"experiment": "Nuclease resistance studies in 50% human serum", "format": "in vitro ADME", "settings": "37° C., 24 h", "experimental": "Nuclease resistance studies--100 μl of EGS oligonucleotides (5 μM), containing a trace of 5'-end-labeled oligomers, were incubated at 37° C. for different time periods (0-24 h) with 50% human serum (Sigma, S-7023). 20 μl aliquots were diluted to 100 μl with RNase-free water, phenol/chlorform extracted, and ethanol precipitated. The residue was resuspended in 10 μl of TE and 10 μl of 2× gel loading buffer containing 98% formamide, 10 mM1 EDTA and 0.1% bromophenol blue. The mixture was heated to 85° C. for 1 min, quickly cooled on ice and frozen at -20° C. prior to electrophoresis on 15% polyacrylamide/8 M urea gels. Gels were subsequently scanned on a Molecular Dynamics PHOSPHORIMAGER™, and the stability profile for each, oligomer was estimated from the ratio of the remaining intact materials versus all radio-labeled materials (intact oligomers plus degradation products). Stability studies of non radio-labeled EGS oligomers using capillary gel electrophoresis were also carried out according to the method of Leeds et al. (15)."}, "[3]": {"test_system": "Substrate RNA (SUB-156)", "experiment": "RNase P-mediated cleavage assay, single turnover conditions", "format": "biochemical, hepatitis B virus (HBV)", "settings": "200 nM EGS, 20 nM substrate, saturating RNase P, 60 min", "experimental": "RNase P-mediated cleavage assay--Human RNase P was purified from HeLa cells according to the published procedures (14). Substrate RNA (SUB-156, FIG. 24) was 5'-end labeled using T4 polynucleotide kinase and [γ-^32P]ATP. The labeling mixture was then heated to 85° C. for 1 min, diluted with RNase-free water, and purified by a MICROSPIN™ G-25 column (Pharmacia) according to the manufacturer's instructions. Cleavage reactions were conducted in a reaction buffer containing 50 mM Tris-HCl (pH 7.4), 25 mM KCl, 10 mM MgCl2 and 0.1 mM EDTA. EGS oligomers and ^32 p-5'-end-labeled RNA substrate were heated in the reaction buffer without MgCl2 to 85° C. for 1 min and then slowly cooled to room temperature. The cleavage reaction was initiated by adding 2 μl of 100 mM MgCl2 and 3 μl of RNase P (enzyme activity for this preparation: cleavage of 0.035 pmol of tRNA^Tyr precursor min^-1 μl^-1). The final reaction volume was 20 μl and the reaction was incubated at 37° C. for 60 min. […] For each sample, cleavage reactions were performed in duplicates and the average values were used. To ensure reproducibility, cleavage assays for each EGS were also repeated in two separate experiments. The all-RNA EGS-159 was used as the reference sample and its cleavage values were counted as 100%. Cleavage percentages of all other EGSs were normalized against EGS-159 (Rel. Cleavage %) except in FIG. 30 and FIG. 31 where absolute cleavage percentages (Abs. Cleavage %) were plotted.\nFor EGS-single turnover conditions, the final concentrations were 200 nM for EGS and 20(nM for the RNA substrate. For EGS-multiple turnover conditions, the final concentrations were 200 nM for the RNA substrate and 40 nM for EGS. When determination of the time-course was required, the reaction volume was increased to 40 μl. Aliquots of 5-8 μl were removed from the reaction mixture at different time points (e.g. 1, 5, 15, 30 and 60 min), quenched in formamide loading buffer, and loaded onto 15% polyacrylamide/8 M urea gels. Quantitation of the cleavage product and the remaining RNA substrate was achieved using a Molecular Dynamics PHOSPHORIMAGER™.\nGeneral considerations--To select lead nuclease-resistant oligonucleotide prototypes as external guide sequences among many possible modifications, a reliable yet rapid in vitro cleavage assay for routine screening was used. Human RNase P, a ribonucleoprotein, is composed of a 340-nt H1 RNA component and one or more proteins (for recent review, see Ref. 16). A 3-step screening strategy was devised: 1) All analogues once synthesized were tested by a fast qualitative cleavage assay under single turnover conditions with 10-fold excess of EGS over target RNA substrate for 60 min. […] This was the best cleavage condition used in this study. Any analogue with a reasonable activity (e.g. more than 5% cleavage) would not be missed, under these circumstances, due to the high detection sensitivity provided by PHOSPHORIMAGER™. 2) Promising analogues were then assayed for stability in 50% human serum."}, "[4]": {"test_system": "short substrate (SEQ ID NO. 1) derived from the full-length pre-genomic HBV RNA", "experiment": "RNAse P cleavage assay, short substrate", "format": "biochemical", "settings": "for efficiency of RNase P-mediated target cleavage relative to the wild-type EGS: short substrate, EGS 200 nM, 37° C., 1 hour", "experimental": "RNAse P Cleavage Assays: Cleavage reactions were carried out generally according to the procedure described by Yuan et al., Proc. Natl. Acad. Sci., USA, 89:8006-8010, (1992), which is hereby incorporated by reference. Briefly, short substrate reactions were made up to a total volume of 31μ in 50 mM Tris-HCl pH 7.4, 10 mM MgCl2, 25 mM KCl, 0.1 mM EDTA, […] at 37° C. for 1 hour. After incubation, the reaction solution was mixed with loading buffer (98% formamide, 10 mM EDTA, 0.025% bromophenol blue). The cleaved substrate was separated from the uncleaved by electrophoresis on a 15% acrylamide gel containing 7 M urea. The bands were quantified on a Molecular Dynamics PHOSPHORIMAGER™.\nThe bands corresponding to the precursor RNA substrate and the resulting two cleavage products were counted from the dried gel using a BETASCOPE™ gel analyzer (Betagen).\nRNAse P was purified by DEAE SEPHAROSE™ chromatography and glycerol density gradient centrifugation essentially as described by Bartkiewicz et al., Genes Dev. 3:488-499 (1989), which is hereby incorporated by reference.\nThe percentage of precursor RNA substrate remaining in either assay was plotted as function of the EGS concentration and the catalytic efficiency expressed as kcat /Km (where kcat is the rate constant of cleavage and Km is the Michaelis constant), the second order rate constant for the reaction of free EGS and substrate. Following the methods of Heidenreich and Eckstein (J. Biol. Chem., 267:1904-1909 (1992), the efficiency of the cleavage reaction, kcat /Km), was determined using the formula\nThe EGS constructs described in Example 2 were assayed using the RNAse P cleavage assays described in Example 1 to determine the efficiency of the cleavage reaction. FIG. 1 depicts the model system using a short substrate which was used to evaluate the ability of modified EGS molecules in inducing RNase P-mediated target cleavage. The sequence of the short substrate (SEQ ID NO. 1) was derived from the full-length pre-genomic HBV RNA."}, "[5]": {"experiment": "Fetal Calf Serum Stability Assay", "format": "in vitro ADME", "settings": "10% heat-inactivated fetal calf serum, EGS about 5 μM", "experimental": "Fetal Calf Serum Stability Assay: The nuclease resistance of modified EGS molecules were tested in a Fetal Calf Serum (FCS) Assay. It was reported by Shaw et al., Nucleic Acids Res. 19:747-750 (1991), that 10% FCS, when heated inactivated, mimics rather closely the human serum. The assay conditions were very similar to that previously described by Hoke et al., Nucleic Acids Res. 19:5743-5748 (1991). Briefly, an EGS analog to be tested was 5'-end labeled with T4 polynucleotide kinase and [γ-^35 S] ATP (this procedure can generate radiolabeled oligonucleotides which are resistant against dephosphorylation). The labeled EGS was then purified by phenol/chloroform extraction, followed by a Sephadex G-25 spin-column filtration. The purified EGS was mixed with cold EGS and 10% heat-inactivated fetal calf serum (FCS) so that the final concentration of EGS was about 5 μM. EGS analogues were treated over a period of 24 hours. Aliquots were withdrawn from the reaction mixture at different time points, mixed with 2× loading dye, heat inactivated at 90° C. for 3 min, then stored at -20° C. The results were analyzed on 12% polyacrylamide/7 M urea gels."}, "[6]": {"test_system": "2.1 kb HBV RNA", "experiment": "RNAse P cleavage of large target RNA", "format": "biochemical", "settings": "250 nM EGS, 30 minutes at 37° C.", "experimental": "To test cleavage with a longer target RNA molecules, different reaction conditions were used. Reactions in a total volume of 10 μl contained 40 mM Tris-HCl (pH 7.4), 10 mM MgCl2, 1 mM spermidine 10 mM dithiothreitol, 0.05 μg/μl nuclease-free bovine serum albumin, 0.01% (v/v) Triton-X100™, 0.8 Units/μl RNASIN, 0.2 mM ATP, 0.2 mM GTP, 0.2 mM UTP, 0.2 mM CTP, 0.1 μCi/μl [a^32 P] CTP, 2 mM m^7 G(5')pppG, 0.06 μg/μl yeast RNA, 25 mM KCl, 3 Units T7 RNA polymerase, 250 nM EGS, 1 μl of human RNAse P and 3 ng/μl linearized plasmid. Reactions were initiated by the addition of linearized plasmid and incubated for 30 minutes at 37° C. Reactions were terminated by the addition of 10 μl of 80% formaemide, 10 mM EDTA, 0.1% bromphenol blue. After heating for 2 minutes at 90° C., samples were electrophoresed for 2 hours at 48 watts on a 5% denaturing polyacrylamide gel. After vacuum drying for 1 hour at 60° C., the gel was analyzed by phosphoimaging.\nCleavage of Large Target RNA: Plasmid pAYW2.1, containing the sequence that encodes the 2.1 kb RNA of the AYW strain of HBV, was linearized by digestion with Not I, and then transcribed by T7 RNA polymerase in the presence of [α^32 P]CTP. Labeled transcripts were incubated for 30 minutes at 37° C. with RNase P in the presence of various EGS molecules. Reaction products were subjected to denaturing polyacrylamide gel electrophoresis, and analyzed by phosphoimaging. EGS-mediated cleavage at the targeted site of the 2.1 kb transcript produces cleavage products that are approximately 1.7 and 0.4 kb in length."}}, "note": "“Also recorded” adds a separate entry of the source.", "data": [{"substance": "EGS-398: lead prototype, U54 replaced with 2'-deoxyuridine, SEQ ID NO. 44 (guide AGAUGAUAGAAGGUUAGAAUCCUUCACGCCGC; 2'-deoxyuridine at tRNA position 54, rest of chemistry not given here)", "values": [{"measurement": "A50 (amount of RNase P required to achieve 50% cleavage)", "setting": "[1]; 60 min, EGS in 10-fold excess relative to the RNA target", "value": 0.061, "unit": "unit"}, {"measurement": "kcat", "setting": "[1]; single turnover, first 5 min", "value": "indistinguishable from that of the all-RNA control"}, {"measurement": "degradation in 50% human serum", "setting": "[2]", "value": "no degradation products were detected"}, {"measurement": "RNase P-mediated cleavage activity compared to the all-RNA control", "setting": "[3]", "value": "promising"}]}, {"substance": "INNO-139: SEQ ID NO. 3, variable loop deleted, 2'-O-methyl recognition sequences and T stem (CGAUGAAGGUUCGAAUCCUUCCCAGGAC; 2'-O-methyl modifications, chemistry not fully specified)", "values": [{"measurement": "turnover of EGS-mediated cleavage", "setting": "[4]; EGS 20 nM, target 400 nM (20 fold excess)", "value": "do not significantly affects turnover"}, {"measurement": "efficiency of RNase P-mediated target cleavage relative to the wild-type EGS", "setting": "[4]", "value": "much of the lost activity can be restored"}, {"measurement": "half-life in 10% FCS", "setting": "[5]", "value": 2, "unit": "h"}]}, {"substance": "INNO-140: all-RNA EGS without variable loop, SEQ ID NO. 3, 28 nucleotides (CGAUGAAGGUUCGAAUCCUUCCCAGGAC; guide RNA; RNA, backbone not given here)", "values": [{"measurement": "half-life in 10% FCS", "setting": "[5]", "value": "less than 10 minutes"}]}, {"substance": "INNO-155: SEQ ID NO. 3, 2'-O-methyl, phosphorothioate T loop, 2'-O-methyl phosphorothioate end caps (CGAUGAAGGUUCGAAUCCUUCCCAGGAC; 2'-O-methyl, phosphorothioate T loop and end caps, positions not given here)", "values": [{"measurement": "efficiency of RNase P-mediated target cleavage relative to the wild-type EGS", "setting": "[4]", "value": "capable of inducing an efficient target cleavage"}, {"measurement": "half-life in 10% FCS", "setting": "[5]", "value": "more than 18 hours"}, {"measurement": "RNase P-mediated cleavage of 2.1 kb HBV RNA", "setting": "[6]", "value": "capable of inducing RNase P-mediated cleavage; also recorded: partially cleaved"}]}]}
